Reference: US10729693B2, “Compositions and methods for the treatment of endometriosis” (PONCE MEDICAL SCHOOL FOUNDATION, INC., priority 2018, dated 2020)

Assays:
Type in all cases: in vivo, rat
stress reactivity = assay: Swim stress challenge; details: day 59; vs vehicle control group
[1] = test system: mineralocorticoid receptor 2 mRNA; assay: mRNA of mineralocorticoid receptor 2 within the adrenal glands; details: compared to sham group
Procedure: FIG. 18: mRNA of mineralocorticoid receptor 2. Within the adrenal glands of the same animals from the sham or endometriosis groups that received vehicle or antalarmin, the mRNA of the mineralocorticoid receptor 2 was measured. This receptor is in charge of binding adrenocorticotropic hormone (ACTH), which was elevated in animals that received antalarmin. The mineralocorticoid receptor mRNA expression is decreased in response to antalarmin as compared to the sham group. This could be due to a down regulation of the receptor in response to increased ACTH circulating levels. ** p<0.01.

[2] = test system: CRH, UCN1, CRHR1, CRHR2 and glucocorticoid receptor (GR) mRNA; assay: qRT-PCR of mRNA levels in uterus and endometriosis vesicles; details: normalized to sham uterus, day 60
Procedure: Endometriosis vesicles and normal uterine tissue from endometriosis or sham rats, were lysed in an RLT buffer (QIAGEN, Germantown, Md.) using the BULLET BLENDER Tissue Homogenizer (NEXT ADVANCE, Averill Park, N.Y.). The total RNA from the lysates were extracted according to RNEASY Mini Kit manufacturer's protocol (QIAGEN, Germantown, Md.). RNA concentration and purity were measured on a NanoDrop™ 2000 UV spectrophotometer (Thermo Scientific™, Wilmington, USA). Concentration and quality of RNA samples were acquired based on the ratio of absorbance at 260/280 nm in the spectrophotometer. To carry out the synthesis of cDNA from RNA samples a total reaction volume of 20 μl including 0.1 μg of total RNA concentration and synthesis reagents was used. A iScript™ cDNA Synthesis Kit was used according to manufacturer's protocol (BIO-RAD, Hercules, Calif.). Reactions were carried out in T-100™ thermal cycler (BIO-RAD, Hercules, Calif.). RT-PCR running method was as follows: 25° C. for 5 min, 42° C. for 30 min, 85° C. for 5 min. Samples were stored at −80° C. for later experimentation or qRT-PCR.
Real time quantitative PCR (qPCR) was used to evaluate changes in mRNA expression. For this, 25 μl of a total volume of reaction assay was used with 1:10 dilution of cDNA with iQ™ SYBR Green Supermix (BIO-RAD Hercules, Calif.) in a 96 well plate according to the manufacturer protocol and amplified in a Quant Studio™ 12 K Flex Real time PCR System (Applied Biosystems™, Carlsbad, Calif.). Commercial primers for CRH, UCN1 CRHR1, CRHR2 and glucocorticoid receptor (GR) were purchased from QIAGEN (Germantown, Md.). Real time PCR cycles protocol was as follows: 95° C. for 10 min. for enzyme activation followed by 40 cycles of denaturing at 95° C. for 15 sec. and annealing at 60° C. for 1 min. All changes in gene expression were normalized against GAPDH of each sample. CT values and changes per gene expression level were automatically analyzed by the Quantstudio™ 12 K Flex Software (Applied Biosystems™, Carlsbad, Calif.). All samples were run in duplicate. For comparison purposes, mRNA from sham rats were always run within the same plate as experimental samples from vehicle treated and antalarmin treated groups.
GraphPad Prism 6.0 (GraphPad Software, San Diego, Calif.) was used to prepare graphs and run statistical analyses. Data is presented as mean difference+SEM and a p value <0.05 was considered statistically significant. The variability between groups was first assessed followed by a test for outlier values. […] A One-way analysis of variance (ANOVA) was used to compare behaviors. A one-sample t-test against the sham rats value normalized to 1.0. was used to assess RT-PCR results. A repeated measures One-way ANOVA was used to compare changes in weight gain between treatment groups.

[3] = Body weight monitoring of rats with endometriosis; details: vs vehicle
Source text: Female Sprague Dawley rats of 60 days old were used in the experiments (weighing between 190-220 grams). Rats were purchased from Ponce Research Institute Animal Facilities and littermates were never assigned to the same experimental group. Rats were housed two per cage and kept in a 12-hour light/dark cycle with food and water ad libitum. All experimental procedures were approved by the Ponce Health Sciences University (protocol #202) and the University of Texas at Rio Grande Valley (protocol #2016-004) Institutional Animal Care and Use Committees and adhere to the NIH Guide for the Care and Use of Laboratory Animals. Rats were weighed twice per week to monitor their adequate development and once a day during the drug administration period; also, estrous cycles were monitored before and after treatment to assess possible effects of the drug on reproductive cyclicity.
Inconsistencies in the effect of antalarmin on […] rodent body weight can happen. The Group 2 rat weight changes were monitored during the drug administration period and every week afterwards during the development of endometriosis.

[4] = test system: corticosterone, adrenocorticotropic hormone (ACTH), IL-6; assay: ELISA of serum corticosterone and ACTH and of peritoneal fluid IL-6; details: at sacrifice
Source text: It was verified that the animals were deeply anesthetized. Rats were weighed, and a cytological smear taken to verify stage of the estrous cycle. The peritoneal and thoracic cavities were opened, and a blood sample was collected directly from the heart. Following this, peritoneal fluid was collected using a sterile plastic pipette. Examination was directed to the presence of endometriosis vesicles. The implants that developed into vesicles were excised from the mesentery, weighed and measured using a digital caliper. Classification of vesicles was carried out and assigned the following grades: grade 1=disappeared; grade 2=0.01-1.99 mm; grade 3=2-4.49 mm; grade 4=4.5-5.99 mm; grade 5=6.0 mm or larger. In sham animals, empty suture sites were counted and collected. In addition to the endometriosis vesicles, the adrenal glands were collected, all surrounding fatty tissue was removed, and the cleared adrenal glands were weighed. Additionally, tissues from colon and the left uterine horn were collected. All tissues were flash frozen and stored at −80° until further processing.
Serum and peritoneal fluid samples from animals were tested for levels of corticosterone, adrenocorticotropic hormone (ACTH) and the pro-inflammatory cytokine IL-6 following instructions in the commercial kits. The following kits were used: Corticosterone rat/mouse kit (Cat. #79175; IBL America, Minneapolis, Minn.); Rat IL-6 pre-coated ELISA kit (Cat. #437107; BioLegend, San Diego, Calif.); Mouse/rat ACTH ELISA kit (Cat. # AC018T-100, Calbiotech, El Cajon, Calif.).

## CCCCN(CC)c1nc(C)nc2c1c(C)c(C)n2-c1c(C)cc(C)cc1C [antalarmin]
Stress reactivity
  swim stress behavioral parameters (immobility, swimming, struggling, diving): not different from the control group
[1]
  mineralocorticoid receptor 2 mRNA expression in adrenal glands: decreased
[2]
  UCN1 mRNA in uterus and vesicles: not altered
  glucocorticoid receptor (GR) mRNA in uterus: no changes in uterus
  glucocorticoid receptor (GR) mRNA in vesicles: significant mRNA fold increase
[2]; increase only in vesicles of vehicle animals
  CRHR2 mRNA in uterus and vesicles: No other changes were observed
[2]; increased in vehicle group
  CRHR1 mRNA in endometriosis vesicles: this increase was not observed
[2]; two-fold increase in vehicle rats
  CRH mRNA in uterus and vesicles: this increase was not observed
[3]; by week 7 and 8 after endometriosis induction
  weight gain in subsequent weeks: significantly lower weight gain
[3]; day 7 and 2 days after treatment stopped
  body weight during and just after drug administration: weighed significantly less
[4]; 53 days after treatment
  IL-6 in peritoneal fluid: did not produce any change
[4]; day 60
  serum corticosterone: slightly elevated
[4]; day 60, compared to vehicle group
  serum adrenocorticotropic hormone (ACTH): significantly elevated levels
